Source: PubChem BioAssay AID330 (DTP/NCI, 2004)
Where “and” joins values, the source holds several entries; their conditions need not be identical. Equal values may be shown once. Inconclusive results and toxic doses are left out.

Tested on: P388 leukemia ip, CD2F1 mice, survival T/C
Assay: NCI In Vivo Anticancer Drug Screen. Data for tumor model P388 Leukemia (intraperitoneal) in CD2F1 (CDF1) mice
Details: endpoint: median survival time, higher = longer survival
Summary of the method: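 Mice carrying the transplanted tumor received test compound or vehicle. Survival was recorded in each group, and the value is the treated-group measurement divided by that of the vehicle-treated control group.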

[1] = dose: 12.5 mg/kg/injection, schedule: Q01DX009 (ip), vehicle: Klucel (hydroxypropylcellulose) (HPC)
[2] = dose: 25.0 mg/kg/injection, schedule: Q01DX009 (ip), vehicle: Klucel (hydroxypropylcellulose) (HPC)
[3] = dose: 50.0 mg/kg/injection, schedule: Q01DX009 (ip), vehicle: Klucel (hydroxypropylcellulose) (HPC)
[4] = dose: 100.0 mg/kg/injection, schedule: Q01DX009 (ip), vehicle: Klucel (hydroxypropylcellulose) (HPC)
[5] = dose: 200.0 mg/kg/injection, schedule: Q01DX009 (ip), vehicle: Klucel (hydroxypropylcellulose) (HPC)
[6] = dose: 12.5 mg/kg/injection, schedule: Q01DX009 (ip), vehicle: saline with Tween-80
[7] = dose: 25.0 mg/kg/injection, schedule: Q01DX009 (ip), vehicle: saline with Tween-80
[8] = dose: 50.0 mg/kg/injection, schedule: Q01DX009 (ip), vehicle: saline with Tween-80
[9] = dose: 50.0 mg/kg/injection, schedule: Q01DX009 (ip), vehicle: saline
[10] = dose: 200.0 mg/kg/injection, schedule: Q01DX009 (ip), vehicle: saline
[11] = dose: 100.0 mg/kg/injection, schedule: Q01DX009 (ip), vehicle: saline with Tween-80
[12] = dose: 200.0 mg/kg/injection, schedule: Q01DX009 (ip), vehicle: saline with Tween-80
[13] = dose: 50.0 mg/kg/injection, schedule: Q01DX005 (ip), vehicle: saline with Tween-80
[14] = dose: 100.0 mg/kg/injection, schedule: Q01DX005 (ip), vehicle: saline with Tween-80
[15] = dose: 200.0 mg/kg/injection, schedule: Q01DX005 (ip), vehicle: saline with Tween-80
[16] = dose: 100.0 mg/kg/injection, schedule: Q01DX009 (ip), vehicle: saline
[17] = dose: 60.0 mg/kg/injection, schedule: Q01DX005 (ip), vehicle: saline with Tween-80
[18] = dose: 120.0 mg/kg/injection, schedule: Q01DX005 (ip), vehicle: saline with Tween-80
[19] = dose: 100.0 mg/kg/injection, schedule: Q01DX001 (ip), vehicle: saline with Tween-80
[20] = dose: 200.0 mg/kg/injection, schedule: Q01DX001 (ip), vehicle: saline with Tween-80
[21] = dose: 100.0 mg/kg/injection, schedule: Q04DX002 (ip), vehicle: Klucel (hydroxypropylcellulose) (HPC)
[22] = dose: 200.0 mg/kg/injection, schedule: Q04DX002 (ip), vehicle: Klucel (hydroxypropylcellulose) (HPC)
[23] = dose: 400.0 mg/kg/injection, schedule: Q04DX002 (ip), vehicle: Klucel (hydroxypropylcellulose) (HPC)

SMILES: [CH3][Sn]([CH3])([CH3])[N]=C=[N][Sn]([CH3])([CH3])[CH3]
- T/C (dose: 0.4 mg/kg/injection, schedule: Q01DX005 (ip), vehicle: saline): 100 % of control
- T/C (dose: 0.8 mg/kg/injection, schedule: Q01DX005 (ip), vehicle: saline): 101 % of control

SMILES: COc1cccc(C=Nc2ccccc2O)c1O.[O]=[V]
- T/C (dose: 6.25 mg/kg/injection, schedule: Q01DX009 (ip), vehicle: Klucel (hydroxypropylcellulose) (HPC)): 98 % of control and 107 % of control
- T/C [1]: 106 % of control and 115 % of control
- T/C [2]: 100 % of control and 118 % of control
- T/C [3]: 91 % of control

SMILES: O=C(CC1CCCC/C1=N\O)NO (stereo not drawn)
- T/C [3]: 100 % of control
- T/C (dose: 100.0 mg/kg/injection, schedule: Q01DX001 (ip), vehicle: Klucel (hydroxypropylcellulose) (HPC)): 106 % of control
- T/C [4]: 100 % of control
- T/C (dose: 200.0 mg/kg/injection, schedule: Q01DX001 (ip), vehicle: Klucel (hydroxypropylcellulose) (HPC)): 112 % of control
- T/C [5]: 117 % of control
- T/C (dose: 400.0 mg/kg/injection, schedule: Q01DX001 (ip), vehicle: Klucel (hydroxypropylcellulose) (HPC)): 109 % of control

SMILES: CCN1c2ccccc2CC(CCN(C(C)C)C(C)C)(C(N)=O)c2ccccc21 (stereo not drawn)
- T/C (dose: 25.0 mg/kg/injection, schedule: Q04DX002 (ip), vehicle: saline with Tween-80): 95 % of control
- T/C (dose: 50.0 mg/kg/injection, schedule: Q04DX002 (ip), vehicle: saline with Tween-80): 95 % of control
- T/C (dose: 100.0 mg/kg/injection, schedule: Q04DX002 (ip), vehicle: saline with Tween-80): 95 % of control

SMILES: Cc1ccccc1C(=O)Nc1ccccc1-c1ccccc1
- T/C [6]: 94 % of control
- T/C [7]: 100 % of control
- T/C [8]: 106 % of control
- T/C [9]: 95 % of control
- T/C [10]: 93 % of control

SMILES: COP(=S)(OC)SCSc1ccc(Cl)cc1
- T/C [6]: 89 % of control
- T/C [7]: 91 % of control

SMILES: COC(=O)/C=C/c1c[nH]c2nccnc12
- T/C [1]: 98 % of control
- T/C [2]: 100 % of control
- T/C [3]: 102 % of control
- T/C [4]: 100 % of control
- T/C [5]: 98 % of control

SMILES: CC(C#N)(Cc1ccccc1)Nc1ccccc1 (stereo not drawn)
- T/C [8]: 95 % of control
- T/C [11]: 90 % of control
- T/C [12]: 95 % of control

SMILES: Nc1c(C(=O)NCCc2ccccc2)c2nc3c(C(=O)NCCc4ccccc4)cccc3oc-2cc1=O
- T/C [13]: 96 % of control
- T/C [14]: 89 % of control
- T/C [15]: 105 % of control

SMILES: Cc1cc(N=Cc2cccs2)ccc1Br
- T/C [3]: 101 % of control and 98 % of control
- T/C [4]: 100 % of control and 101 % of control and 102 % of control
- T/C [5]: 102 % of control and 95 % of control
- T/C (dose: 400.0 mg/kg/injection, schedule: Q01DX009 (ip), vehicle: Klucel (hydroxypropylcellulose) (HPC)): 105 % of control

SMILES: C=C(CN(C)C)C(=O)c1ccc(OC)cc1OC
- T/C (dose: 1.9 mg/kg/injection, schedule: Q04DX002 (ip), vehicle: saline): 95 % of control
- T/C (dose: 3.8 mg/kg/injection, schedule: Q04DX002 (ip), vehicle: saline): 106 % of control
- T/C (dose: 7.5 mg/kg/injection, schedule: Q04DX002 (ip), vehicle: saline): 102 % of control and 98 % of control

SMILES: O=C1NC2NC(=O)NC2N1 (stereo not drawn)
- T/C (dose: 100.0 mg/kg/injection, schedule: Q04DX003 (ip), vehicle: Klucel (hydroxypropylcellulose) (HPC)): 94 % of control
- T/C (dose: 200.0 mg/kg/injection, schedule: Q04DX003 (ip), vehicle: Klucel (hydroxypropylcellulose) (HPC)): 107 % of control
- T/C (dose: 400.0 mg/kg/injection, schedule: Q04DX003 (ip), vehicle: Klucel (hydroxypropylcellulose) (HPC)): 100 % of control

SMILES: CC1=CC2(C)C3C(=O)NC(=O)C3C1C1(C)C3C(=O)NC(=O)C3C21 (stereo not drawn)
- T/C [2]: 103 % of control
- T/C [3]: 108 % of control
- T/C [4]: 109 % of control
- T/C [5]: 97 % of control

SMILES: CCCSCN(CC)CC
- T/C [9]: 95 % of control
- T/C [16]: 90 % of control
- T/C [10]: 114 % of control

SMILES: COc1cc([C@@H]2c3cc(OC(C)=O)c(OC)cc3C[C@@H]3C(=O)OC[C@@H]23)ccc1OC(C)=O
- T/C [13]: 98 % of control
- T/C [14]: 93 % of control
- T/C [15]: 93 % of control

SMILES: c1ccc(N=NC2=NN(c3ccccc3)CS2)cc1
- T/C [7]: 105 % of control and 106 % of control
- T/C [8]: 101 % of control and 102 % of control
- T/C [11]: 101 % of control and 102 % of control
- T/C [12]: 101 % of control and 106 % of control

SMILES: Nc1ncnc2nc(-c3ccc(C[P+](c4ccccc4)(c4ccccc4)c4ccccc4)cc3)[nH]c12
- T/C [17]: 95 % of control
- T/C [18]: 95 % of control
- T/C (dose: 240.0 mg/kg/injection, schedule: Q01DX005 (ip), vehicle: saline with Tween-80): 95 % of control

SMILES: COC(=O)c1nc(N)nc(C(=O)OC)c1C(=O)c1c(C)[nH]c2ccccc12
- T/C [17]: 114 % of control
- T/C [18]: 91 % of control

SMILES: COC(=O)C1=C(C(=O)OC)CC1
- T/C [8]: 109 % of control
- T/C [11]: 109 % of control
- T/C [12]: 117 % of control

SMILES: CC(=O)C(=Cc1c(N(C)c2ccccc2)nn2ccccc12)C(C)=O
- T/C [19]: 100 % of control
- T/C [20]: 100 % of control
- T/C (dose: 400.0 mg/kg/injection, schedule: Q01DX001 (ip), vehicle: saline with Tween-80): 100 % of control

SMILES: C1N2CN3CN1CP(C2)C3
- T/C [9]: 112 % of control
- T/C [16]: 115 % of control
- T/C [10]: 106 % of control

SMILES: COc1ccc(Sc2ccccn2)cc1OC
- T/C [13]: 101 % of control
- T/C [14]: 106 % of control
- T/C [15]: 114 % of control

SMILES: CCCCC(CC)OC(=O)c1cccc(C(=O)O)c1 (stereo not drawn)
- T/C [19]: 115 % of control
- T/C [20]: 97 % of control

SMILES: CCC1(C)C(C#N)C(=O)NC(=O)C1C#N (stereo not drawn)
- T/C [7]: 95 % of control
- T/C [8]: 95 % of control

SMILES: Nc1nc(N)c2nc(CNc3ccc(C(=O)NC(CCC(=O)O)C(=O)O)cc3F)cnc2n1 (stereo not drawn)
- T/C (dose: 1.87 mg/kg/injection, schedule: Q01DX005 (ip), vehicle: saline with Tween-80): 163 % of control
- T/C (dose: 7.5 mg/kg/injection, schedule: Q01DX005 (ip), vehicle: saline with Tween-80): 183 % of control

SMILES: CC(CCc1ccc(O)cc1)NCCc1ccc(O)c(O)c1 (stereo not drawn)
- T/C (dose: 50.0 mg/kg/injection, schedule: Q01DX009 (ip), vehicle: suspension in saline): 100 % of control
- T/C (dose: 100.0 mg/kg/injection, schedule: Q01DX009 (ip), vehicle: suspension in saline): 104 % of control
- T/C (dose: 200.0 mg/kg/injection, schedule: Q01DX009 (ip), vehicle: suspension in saline): 115 % of control

SMILES: Cc1nc2ccccc2c(=O)o1
- T/C [3]: 97 % of control
- T/C [4]: 98 % of control
- T/C [21]: 105 % of control
- T/C [5]: 90 % of control
- T/C [22]: 107 % of control
- T/C [23]: 100 % of control

SMILES: C1=NCCNc2nc3ccccc3cc2C=NCCNc2nc3ccccc3cc21
- T/C (dose: 50.0 mg/kg/injection, schedule: Q04DX002 (ip), vehicle: saline): 100 % of control
- T/C (dose: 100.0 mg/kg/injection, schedule: Q04DX002 (ip), vehicle: saline): 99 % of control
- T/C (dose: 200.0 mg/kg/injection, schedule: Q04DX002 (ip), vehicle: saline): 99 % of control

SMILES: Cc1c(C#N)sc2ccccc12
- T/C (dose: 25.0 mg/kg/injection, schedule: Q01DX009 (ip), vehicle: other): 96 % of control
- T/C (dose: 50.0 mg/kg/injection, schedule: Q01DX009 (ip), vehicle: other): 105 % of control
- T/C (dose: 100.0 mg/kg/injection, schedule: Q01DX009 (ip), vehicle: other): 89 % of control

SMILES: Cn1c(=O)c2nc(-c3ccccc3)nnc2n(CCO)c1=O
- T/C [21]: 105 % of control
- T/C [22]: 106 % of control
- T/C [23]: 110 % of control
